ChEMBL document CHEMBL1201862, “PubChem BioAssay data set” (2004)
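In this assay, cells in 96-well plates receive the compound at five concentrations for 48 hours. Endpoints are linearly interpolated between the surrounding concentrations. At the GI50, growth is halved.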 The source made the active and inactive calls. Cut-off read from the data, not from the text of the source: active = GI50 up to about 1.1 µM and inactive = higher.

Legend:
Test in all cases: NCI anticancer screen, dose series, 48 h
[1] = system: BT-549
[2] = system: CAKI-1
[3] = system: HCT-15
[4] = system: K562
[5] = system: KM12
[6] = system: M14
[7] = system: Malme-3M
[8] = system: NCI-H23
[9] = system: NCI-H460
[10] = system: NCI/ADR-RES
[11] = system: RPMI-8226
[12] = system: SF-268
[13] = system: SK-MEL-28
[14] = system: SNB-19
[15] = system: SNB-75
[16] = system: SW-620
[17] = system: UACC-257
[18] = system: UACC-62
[19] = system: CCRF-CEM
[20] = system: HOP-92

Measured: GI50

O=C(O)CC(NC(=O)C(F)(F)F)C(=O)NC1Cc2ccccc2OC1=O (centres undefined)
> 100 µM: [3]
inactive: [1] > 100 µM | [2] > 100 µM | [4] > 100 µM | [5] > 100 µM | [6] > 100 µM | [7] > 100 µM | [8] > 100 µM | [9] > 100 µM | [10] > 100 µM | [11] > 100 µM | [12] > 100 µM | [13] > 100 µM | [14] > 100 µM | [15] > 100 µM | [16] > 100 µM | [17] > 100 µM | [18] > 100 µM

N#Cc1ncn(-c2ccccc2)c1N
> 100 µM: [3]
inactive: [1] > 100 µM | [2] > 100 µM | [19] > 100 µM | [4] > 100 µM | [5] > 100 µM | [6] > 100 µM | [7] > 100 µM | [8] > 100 µM | [9] > 100 µM | [10] > 100 µM | [11] > 100 µM | [12] > 100 µM | [13] > 100 µM | [14] > 100 µM | [15] > 100 µM | [16] > 100 µM | [17] > 100 µM | [18] > 100 µM

N#Cc1c(N2CCN(c3ccc([N+](=O)[O-])cc3)CC2)[n+]([O-])c2ccccc2[n+]1[O-]
> 100 µM: [3]
inactive: [1] > 100 µM | [2] > 100 µM | [19] 4.94 µM | [4] 6.78 µM | [5] > 100 µM | [6] > 100 µM | [7] > 100 µM | [8] > 100 µM | [9] > 100 µM | [10] 79.4 µM | [11] 6.5 µM | [13] > 100 µM | [14] > 100 µM | [15] > 100 µM | [16] > 100 µM | [17] > 100 µM | [18] > 100 µM
active: [12] 0.346 µM

O=C(NC(=O)c1ccccc1)OC(c1ccccc1)C1CO1 (centres undefined)
> 100 µM: [3]
inactive: [1] > 100 µM | [2] > 100 µM | [19] > 100 µM | [4] > 100 µM | [5] > 100 µM | [6] > 100 µM | [7] > 100 µM | [8] > 100 µM | [9] > 100 µM | [10] > 100 µM | [11] > 100 µM | [12] > 100 µM | [13] > 100 µM | [14] > 100 µM | [15] > 100 µM | [16] > 100 µM | [17] > 100 µM | [18] > 100 µM

Nc1n[n+]([O-])c2cnccc2[n+]1[O-]
32 µM: [3]
inactive: [1] 45.2 µM | [2] > 100 µM | [19] 8.28 µM | [5] 58.7 µM | [6] 22.3 µM | [7] > 10 µM | [8] 42.2 µM | [9] 34.8 µM | [10] 78 µM | [11] > 100 µM | [12] 93.8 µM | [13] 82.4 µM | [14] > 100 µM | [15] > 100 µM | [16] 38.4 µM | [17] 24 µM | [18] 30.1 µM

CC1(C)CC(=O)/C(=C/C2CCNC2=S)C(=O)N1 (centres undefined)
> 100 µM: [3]
inactive: [2] > 100 µM | [19] > 100 µM | [20] > 100 µM | [4] > 100 µM | [5] > 100 µM | [6] > 100 µM | [7] > 100 µM | [8] > 100 µM | [9] > 100 µM | [10] > 100 µM | [11] > 100 µM | [12] > 100 µM | [13] > 100 µM | [14] > 100 µM | [15] > 100 µM | [16] > 100 µM | [17] > 100 µM | [18] > 100 µM

O=C(Nc1nnc(-c2ccc(Cl)cc2)o1)C(SC(=S)N1CCOCC1)c1ccccc1 (centres undefined)
inactive: [1] 16.8 µM | [2] 20.3 µM | [19] 10 µM | [4] 11.6 µM | [5] 13.7 µM | [6] 16.1 µM | [7] 35 µM | [8] 20.9 µM | [9] 6.44 µM | [10] 5.58 µM | [11] 9.48 µM | [13] 23.2 µM | [14] 27 µM | [15] 26.4 µM | [16] 26 µM | [17] 33 µM
6.03 µM: [3]
